The target in this assay is H1047R PIK3CA enzyme (Homo sapiens, UniProt P42336, H1047R). Kind of assay: ADP-Glo Biochemical PIK3CA Kinase Assay.

SMILES strings stand for the structures.

Sequence of H1047R PIK3CA enzyme (P42336 whole entry H1047R): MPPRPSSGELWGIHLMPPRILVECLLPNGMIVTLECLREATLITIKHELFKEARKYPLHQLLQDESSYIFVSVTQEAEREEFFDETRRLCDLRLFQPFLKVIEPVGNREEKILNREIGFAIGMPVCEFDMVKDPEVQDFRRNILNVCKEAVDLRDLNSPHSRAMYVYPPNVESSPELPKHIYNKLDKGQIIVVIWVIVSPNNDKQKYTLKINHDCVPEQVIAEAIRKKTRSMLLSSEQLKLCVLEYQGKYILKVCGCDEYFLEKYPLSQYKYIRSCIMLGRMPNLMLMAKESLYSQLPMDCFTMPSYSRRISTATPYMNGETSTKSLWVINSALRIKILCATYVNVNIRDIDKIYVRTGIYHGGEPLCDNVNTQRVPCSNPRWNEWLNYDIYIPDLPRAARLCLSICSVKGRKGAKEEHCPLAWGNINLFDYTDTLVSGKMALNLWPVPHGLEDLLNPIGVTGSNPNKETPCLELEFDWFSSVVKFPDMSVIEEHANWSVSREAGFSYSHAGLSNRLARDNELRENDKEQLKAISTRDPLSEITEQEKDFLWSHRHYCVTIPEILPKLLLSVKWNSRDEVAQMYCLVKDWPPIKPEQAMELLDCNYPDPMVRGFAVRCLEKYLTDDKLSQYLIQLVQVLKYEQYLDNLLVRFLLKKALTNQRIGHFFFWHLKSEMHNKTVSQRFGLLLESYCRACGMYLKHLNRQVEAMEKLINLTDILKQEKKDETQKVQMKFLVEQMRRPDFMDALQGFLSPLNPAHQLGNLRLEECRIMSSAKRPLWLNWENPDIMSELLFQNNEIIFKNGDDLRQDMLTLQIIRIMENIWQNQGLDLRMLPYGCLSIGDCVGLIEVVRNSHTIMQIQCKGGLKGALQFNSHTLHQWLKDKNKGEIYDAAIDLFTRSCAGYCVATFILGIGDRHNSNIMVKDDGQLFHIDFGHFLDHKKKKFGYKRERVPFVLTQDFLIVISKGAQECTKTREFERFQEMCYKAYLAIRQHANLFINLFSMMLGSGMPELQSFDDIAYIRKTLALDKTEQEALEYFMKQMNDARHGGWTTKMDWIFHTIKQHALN
Sequence of H1047R PIK3CA enzyme (P27986 whole entry partner): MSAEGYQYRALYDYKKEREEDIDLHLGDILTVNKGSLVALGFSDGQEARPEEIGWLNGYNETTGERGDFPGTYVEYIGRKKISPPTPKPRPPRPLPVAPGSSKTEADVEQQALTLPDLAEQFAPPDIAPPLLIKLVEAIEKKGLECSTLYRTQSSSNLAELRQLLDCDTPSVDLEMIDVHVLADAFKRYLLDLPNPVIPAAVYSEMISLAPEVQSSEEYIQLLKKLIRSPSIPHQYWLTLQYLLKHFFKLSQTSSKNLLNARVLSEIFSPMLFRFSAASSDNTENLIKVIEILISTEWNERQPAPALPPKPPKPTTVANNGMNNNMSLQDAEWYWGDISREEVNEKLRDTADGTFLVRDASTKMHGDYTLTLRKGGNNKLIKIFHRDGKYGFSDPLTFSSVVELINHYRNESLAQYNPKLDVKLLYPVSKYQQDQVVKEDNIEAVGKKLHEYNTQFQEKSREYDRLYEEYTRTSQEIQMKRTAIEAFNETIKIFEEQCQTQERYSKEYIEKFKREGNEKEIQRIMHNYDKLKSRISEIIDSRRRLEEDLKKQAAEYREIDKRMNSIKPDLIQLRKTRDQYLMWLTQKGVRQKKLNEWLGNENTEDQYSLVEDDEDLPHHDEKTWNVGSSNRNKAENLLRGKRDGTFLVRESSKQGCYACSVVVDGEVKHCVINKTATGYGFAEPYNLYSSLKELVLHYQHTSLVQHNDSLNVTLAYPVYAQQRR

A word on the IC50: it is the concentration that inhibits the measured activity by half. Take `Cc1ccccc1Nc1ncc(C(=O)Nc2ccccc2)cc1NC(=O)c1cc(F)cc(C(F)(F)F)c1` [I-231]: the IC50 lay within 1 to 10 µM.
For `CNC(=O)c1cnc(Nc2ccccc2C)c(NC(=O)c2nccc3ccccc23)c1` [I-233] the value was 10 to 100 µM; for `Cc1ccccc1Nc1ncc(C(=O)Nc2ccn(C)n2)cc1NC(=O)c1cc(F)cc(C(F)(F)F)c1` [I-235], 0.5 to 1 µM.
Then `CNC(=O)c1cnc(Nc2ccccc2C)c(NC(=O)c2ccc(F)c3ccccc23)c1` [I-236], with 10 to 100 µM; and `CNC(=O)c1cnc(Nc2ccccc2C)c(NC(=O)c2cccc3cnccc23)c1` [I-237], with 10 to 100 µM; and `CNC(=O)c1cnc(Nc2ccccc2C)c(NC(=O)c2cccc3ccncc23)c1` [I-238], with 10 to 100 µM.
With `CNC(=O)c1cnc(Nc2ccccc2C)c(NC(=O)c2csc(C(F)(F)F)n2)c1` [I-241], the IC50 was in the range of 10 to 100 µM.
Then `CNC(=O)c1cnc(Nc2ccccc2C)c(NC(=O)c2csc(C)n2)c1` [I-242], with 10 to 100 µM; and `CNC(=O)c1cnc(Nc2ccccc2C)c(NC(=O)c2csc(N)n2)c1` [I-243], with 10 to 100 µM; and `CNC(=O)c1cnc(N2CCNc3ccccc32)c(NC(=O)c2csc3ccccc23)c1` [I-244], with 10 to 100 µM.
For `CNC(=O)c1cnc(Nc2ccccc2C)c(NC(=O)Cc2cccnc2)c1` [I-250] the value was 10 to 100 µM.
For `CNC(=O)c1cnc(Nc2ccccc2C)c(NC(=O)C2CCOc3ccccc32)c1` (stereo not drawn) [I-259] the value was 10 to 100 µM; for `CNC(=O)c1cnc(Nc2ccccc2C)c(NC(=O)C2CCSc3ccccc32)c1` (stereo not drawn) [I-260], 10 to 100 µM.
With `Cc1ccc(Nc2ncc(C(=O)NCc3ccnn3C)cc2NC(=O)c2csc3ccccc23)cc1` [I-261], the IC50 is 1 to 10 µM.
Then `Cc1ccccc1Nc1ncc(C(=O)Nc2ccncn2)cc1NC(=O)c1cc(F)cc(C(F)(F)F)c1` [I-262], with 0.5 to 1 µM.
Then `Cc1ccc(NC(=O)c2cnc(Nc3ccccc3C)c(NC(=O)c3cc(F)cc(C(F)(F)F)c3)c2)nc1` [I-263], with 1 to 10 µM; and `Cc1cnnc(NC(=O)c2cnc(Nc3ccccc3C)c(NC(=O)c3cc(F)cc(C(F)(F)F)c3)c2)c1` [I-264], with 1 to 10 µM; and `Cc1ccccc1Nc1ncc(C(=O)Nc2cncnc2)cc1NC(=O)c1cc(F)cc(C(F)(F)F)c1` [I-265], with 0.5 to 1 µM.
Then `Cc1ccccc1Nc1ncc(N2CCNCC2)cc1NC(=O)c1cc(F)cc(C(F)(F)F)c1` [I-268], with 0.5 to 1 µM; and `CNC(=O)c1cnc(Nc2ncccc2C)c(NC(=O)c2cc(F)cc(C(F)(F)F)c2)c1` [I-269], with 1 to 10 µM.
`Cc1ccccc1Nc1ncc(N2CCN(C(=O)OC(C)(C)C)CC2)cc1NC(=O)c1cc(F)cc(C(F)(F)F)c1` [I-270] showed an IC50 of 1 to 10 µM.
The compound `COCCn1cc(NC(=O)c2csc3ccccc23)c(N2CCOc3ccccc32)cc1=O` [I-271] displayed an IC50 of 1 to 10 µM.
Then `Cn1cc(NC(=O)c2csc3ccccc23)c(N2CCOc3ccccc32)cc1=O` [I-272], with 1 to 10 µM.
For `Cn1cc(NC(=O)c2cc(F)cc(C(F)(F)F)c2)c(N2CCOc3ccccc32)cc1=O` [I-273] the value was 1 to 10 µM.
For the compound `O=C(NC1CS(=O)(=O)C1)c1cnc(N2CCCOc3ccccc32)c(NC(=O)c2csc3ccccc23)c1` [I-277], the IC50 was in the range of 10 to 100 µM.
For `Cc1ccccc1Nc1cc(=O)n(C)cc1NC(=O)c1csc2ccccc12` [I-280] the value was 1 to 10 µM; for `CNC(=O)c1cnc(N2CCNCc3ccccc32)c(NC(=O)c2cc(F)cc(C(F)(F)F)c2)c1` [I-281], 10 to 100 µM.
Then `CNC(=O)c1cnc(N2CCC(C)c3ccccc32)c(NC(=O)c2cc(F)cc(C(F)(F)F)c2)c1` (stereo not drawn) [I-282], with 1 to 10 µM.
Then `CNC(=O)c1cnc(Nc2ccccc2C)c(NC(=O)c2csc3ncccc23)c1` [I-283], with 10 to 100 µM.
In turn, `CCn1cccc(C(=O)Nc2cc(C(=O)NC)cnc2Nc2ccccc2C)c1=O` [I-284] returned an IC50 of 10 to 100 µM.
For `CNC(=O)c1cnc(Nc2ccccc2C)c(NC(=O)Cc2ccccc2S(C)(=O)=O)c1` [I-306] the value was 10 to 100 µM.
For `CNC(=O)c1cnc(Nc2ccccc2C)c(NC(=O)c2cc(F)cc(-c3ccccc3)c2)c1` [I-318] the value was 10 to 100 µM; for `CNC(=O)c1cnc(Nc2ccccc2C)c(NC(=O)c2cc(F)cc3cccnc23)c1` [I-319], 10 to 100 µM; for `CNC(=O)c1cnc(Nc2ccccc2C)c(NC(=O)c2cc(F)cc3ccccc23)c1` [I-320], 10 to 100 µM.
For `O=C(Nc1cccc(=O)n1Cc1ccccc1)c1csc2ccccc12` [I-321] the value was 10 to 100 µM; for `CNC(=O)c1cnc(Nc2ccccc2C)c(NC(=O)c2cc(F)c3ccccc3c2)c1` [I-322], 10 to 100 µM; for `CNC(=O)c1cnc(NCc2cncn2C)c(NC(=O)c2cc(F)cc(C(F)(F)F)c2)c1` [I-323], 10 to 100 µM.
On to `Cc1ccccc1NC(=O)c1cc(NC(=O)c2cc(F)cc(C(F)(F)F)c2)c(Nc2ccccc2C)cn1` [I-324], for which the IC50 fell in the range of 10 to 100 µM.
For `CNC(=O)c1cc(NC(=O)c2cc(F)cc(C(F)(F)F)c2)c(N(C)c2ccccc2C)cn1` [I-325] the value was 1 to 10 µM; for `CNC(=O)c1cnc(Nc2ccccc2C)c(Nc2cc(F)c3cn[nH]c3c2)c1` [I-327], 10 to 100 µM.
For `CNC(=O)c1cnc(Nc2ccccc2C)c(NC(=O)c2c(C)sc3ccccc23)c1` [I-328] the value was 10 to 100 µM; for `CNC(=O)c1cnc(Nc2ccccc2C)c(NC(=O)C2(c3ccccn3)CC2)c1` [I-333], 10 to 100 µM.
In the case of `CNC(=O)c1cnc(Nc2ccccc2C)c(NC(=O)C2(c3cccnc3)CC2)c1` [I-334], the IC50 is 10 to 100 µM.
Then `O=C(Nc1cc(C(=O)NC2CC(F)(F)C2)cnc1N1C(=O)NCc2ccccc21)c1cc(F)cc(C(F)(F)F)c1` [I-338], with 1 to 10 µM; and `CNC(=O)c1cnc(Nc2ccccc2C)c(NC(=O)c2csc3c2CCCC3)c1` [I-340], with 1 to 10 µM; and `CNC(=O)c1cnc(Nc2ccccc2C)c(NC(=O)c2csc3c2CCC3)c1` [I-341], with 1 to 10 µM.
For `CNC(=O)c1cnc(Nc2ccccc2C)c(NC(=O)C2(c3ccccc3)CC2(F)F)c1` (stereo not drawn) [I-342] the value was 10 to 100 µM.
Then `Cc1ccccc1Nc1ccncc1NC(=O)c1csc2ccccc12` [I-344], with 1 to 10 µM; and `CNC(=O)c1cnc(Nc2cccc(OC)n2)c(NC(=O)c2csc3ccccc23)c1` [I-346], with 1 to 10 µM.
In the case of `Cc1ccccc1Nc1ncc(C(O)CO)cc1NC(=O)c1cc(F)cc(C(F)(F)F)c1` (stereo not drawn) [I-351], the IC50 fell in the range of 1 to 10 µM.
Regarding `CNC(=O)c1cnc(Nc2ccccc2C)c(NC(=O)c2csc3cc(C)ccc23)c1` [I-354], the IC50 lay in the range of 1 to 10 µM.
Then `CNC(=O)c1cnc(Nc2ccccc2C)c(NC(=O)c2csc3cc(OC)ccc23)c1` [I-355], with 10 to 100 µM; and `Cc1ccccc1Nc1ncc(C(=O)NC2CS(=O)(=O)C2)cc1NC(=O)c1cncc2ccccc12` [I-356], with 10 to 100 µM.
For `Cc1ccccc1Nc1ncc(C(=O)NC2CS(=O)(=O)C2)cc1NC(=O)c1cc2ccccc2o1` [I-357] the value was 10 to 100 µM; for `CNC(=O)c1cnc(NCCOC)c(NC(=O)c2cc(F)cc(C(F)(F)F)c2)c1` [I-358], 10 to 100 µM; for `CNC(=O)c1cnc(NC2CCCCC2)c(NC(=O)c2cc(F)cc(C(F)(F)F)c2)c1` [I-359], 10 to 100 µM.
As to `CNC(=O)c1cnc(NC2CCCC2)c(NC(=O)c2cc(F)cc(C(F)(F)F)c2)c1` [I-360], the IC50 was in the range of 10 to 100 µM.
Then `Cc1ccccc1Nc1cc(=O)n(CC(=O)NCC2CC(F)(F)C2)cc1NC(=O)c1csc2ccccc12` [I-363], with 1 to 10 µM.
Then `CNC(=O)c1cnc(Nc2ccccc2C)c(NC(=O)c2cc(F)cc(OC(F)F)c2)c1` [I-364], with 1 to 10 µM.
Then `CNC(=O)c1cnc(Nc2ccccc2C)c(NC(=O)c2cnccc2C(F)(F)F)c1` [I-365], with 10 to 100 µM.
For the compound `CNC(=O)c1cnc(Nc2ccccc2C)c(NC(=O)c2ccnc(C(F)(F)F)c2)c1` [I-366], the IC50 was 10 to 100 µM.
For `CNC(=O)c1cnc(Nc2ccccc2C)c(NC(=O)c2nc3ccccc3n(C)c2=O)c1` [I-368] the value was 10 to 100 µM.
For `CNC(=O)c1cnc(Nc2ccccc2C)c(NC(=O)c2cc(C)n(C(F)F)n2)c1` [I-369] the value was 10 to 100 µM; for `CNC(=O)c1cnc(Nc2ccccc2C)c(NC(=O)c2c[nH]c3cccc(OC)c23)c1` [I-370], 10 to 100 µM.
For `CNC(=O)c1cnc(Nc2ccccc2C)c(NC(=O)c2cccnc2C(F)(F)F)c1` [I-371] the value was 10 to 100 µM.
As to `CNC(=O)c1cnc(Nc2ccccc2C)c(NC(=O)c2nccnc2C(F)(F)F)c1` [I-372], the IC50 is 10 to 100 µM.
For `CNC(=O)c1cnc(Nc2ccccc2C)c(NC(=O)Cc2cc(C)cc(F)c2)c1` [I-373] the value was 10 to 100 µM.
`CNC(=O)c1cnc(Nc2ccccc2C)c(NC(=O)c2cn3ccccc3n2)c1` [I-374] showed an IC50 of 10 to 100 µM.
Then `CCn1nc(C(=O)Nc2cc(C(=O)NC)cnc2Nc2ccccc2C)c2ccccc21` [I-375], with 10 to 100 µM; and `CNC(=O)c1cnc(Nc2ccccc2C)c(NC(=O)c2cccc(C(F)(F)F)n2)c1` [I-376], with 10 to 100 µM; and `CNC(=O)c1cnc(Nc2ccccc2C)c(NC(=O)c2cn3c(Cl)cccc3n2)c1` [I-377], with 10 to 100 µM.
Then `CNC(=O)c1cnc(Nc2ccccc2C)c(NC(=O)c2ccc(F)c(F)c2OC)c1` [I-378], with 10 to 100 µM; and `CNC(=O)c1cnc(Nc2ccccc2C)c(NC(=O)c2cccc(C#N)n2)c1` [I-379], with 10 to 100 µM; and `CNC(=O)c1cnc(Nc2ccccc2C)c(NC(=O)c2cn3c(C(F)(F)F)cccc3n2)c1` [I-380], with 10 to 100 µM.
Then `CNC(=O)c1cnc(Nc2ccccc2C)c(NC(=O)CC2COc3ccccc3O2)c1` (stereo not drawn) [I-381], with 10 to 100 µM; and `CNC(=O)c1cnc(Nc2ccccc2C)c(NC(=O)c2ccc(Cl)c(C#N)c2)c1` [I-382], with 10 to 100 µM.
As to `CNC(=O)c1cnc(Nc2ccccc2C)c(NC(=O)c2n[nH]c3c(F)cccc23)c1` [I-383], the IC50 lay in the range of 10 to 100 µM.
`CNC(=O)c1cnc(Nc2ccccc2C)c(NC(=O)CCc2cnccc2C(F)(F)F)c1` [I-384]: the IC50 lay in the range of 10 to 100 µM.

Source of the values: patent publication US20250090540A1, “PI3K-ALPHA INHIBITORS AND METHODS OF USE THEREOF” (Relay Therapeutics, Inc., priority 2021, published 2025).
